Literature values in article PMC3261373 (Bioconjugate Chemistry, 2011).

Key:
[1] = system: angiogenesis and tumor growth; settings: in words
[2] = system: APN
[3] = system: αvβ3-integrin; settings: in vivo blocking studies

Q: For CC(C)C[C@H](NC(=O)[C@@H](O)[C@H](N)Cc1ccccc1)C(=O)O [bestatin], which “effect on angiogenesis and tumor growth” value [1] is on record?
A: The value was “suppressed angiogenesis and tumor growth”.

Q: And the “mode of APN inhibition” value ([2]; in words)?
A: Its value is “slow-binding competitive inhibitor”.

Q: Which “binding to tumors and tissues expressing αvβ3-integrin” value [3] does the source give for “cyclic CisoDGRC [^99mTc-labeled cyclic CisoDGRC conjugate]” here?
A: The value was “selective binding”.

Q: With cyclic CNGRC [cyclic CNGRC peptide] as the molecule, how does the “binding affinity to APN” value ([2]; enzyme inhibition studies) read?
A: Its value is “moderate binding affinity”.

Q: And the “binding to APN/CD13” value ([2]; in words)?
A: The value was “known to bind APN/CD13”.
